Results published in patent US5494936A, “Delivery formulation for probucol” (priority 1994, dated 1996).
Like-named read-outs stand apart in the source and are kept apart here.

Assays:
HIV = conditions: cited from earlier work
Solubility of probucol = format: physicochemical; conditions: formulation A; 10% probucol; ethanol not required to prevent precipitation
Experimental: The ethanol was added as a cosolvent to prevent precipitation of probucol from the peanut oil in formulations B & C.

[1] = cited from earlier work

## Nc1ccn([C@H]2CC[C@@H](CO)O2)c(=O)n1 [ddC]
HIV; after 12 months, 20 patients, average CD4+ count on entry 154
  death rate: 25%

## CC(C)(Sc1cc(C(C)(C)C)c(O)c(C(C)(C)C)c1)Sc1cc(C(C)(C)C)c(O)c(C(C)(C)C)c1 [Probucol, bis(3,5-di-tert-butyl-4-hydroxyphenyl) acetone mercaptole]
Solubility of probucol
  solubility in medium chain triglycerides: sufficiently soluble in medium chain triglycerides
[1]
  water solubility: water-insoluble
[1]; listed as probucol
  water solubility: substantially water insoluble

## Cc1cn([C@H]2C[C@H](N=[N+]=[N-])[C@@H](CO)O2)c(=O)[nH]c1=O [AZT]
HIV; after one year, 159 patients, estimated average CD4+ count 189
  death rate: 15%
